US11510875B2, “Adjuvant formulations comprising TLR4 agonists and methods of using the same” (priority 2012, dated 2022)

What was measured:
[1] = tested on: PfCelTOS; assay: Antibody endpoint titers (IgG, IgG1, IgG2a) after immunization with PfCelTOS vaccine compositions; conditions: BALB/c mice; SE dose 0.02%-2% experiment; GLA (SE or AF) compared to same vaccine composition without GLA
Protocol: On the day of immunization, the emulsion was diluted with PBS to the specified oil concentrations and mixed with antigen and GLA-AF (where applicable). […] Throughout the manuscript the emulsion dose is referred to as the % v/v of oil in the final vaccine formulation; the ratio of oil to emulsifier is kept constant at all doses.
Endpoint titer was determined using Prism (GraphPad Software, La Jolla, Calif.) following a sigmoidal fit (variable slope) of the values determined at dilution, with the endpoint titer corresponding to a cutoff value (C) determined as described previously [10] with C=X+SDf, where X is the average and SD is the standard deviation of the negative sera control plate, and f is the multiplier at the 99.9% confidence level. A cutoff value of 0.1 OD was assigned if the cutoff value as determined above was less than 0.1 OD. On rare occasions, individual plate wells registered an abnormally high reading near the highest dilutions. These were excluded from the sigmoidal fit by employing the Grubb's test on the suspect value, comparing to the 4 dilutions surrounding the dilution in question at the 99% confidence level [11].
BALB/c mice were immunized 3 times with PfCelTOS vaccine compositions with 3 weeks between injections.

[2] = tested on: PfCelTOS; format: in vivo, Plasmodium falciparum; conditions: BALB/c mice; SE dose 0.5%-2% experiment; GLA- or Montanide-containing vaccines

glucopyranosyl lipid adjuvant [GLA]
IgG2a response [1]: stronger
antibody-secreting plasma cells [2]: Higher numbers
